The values below come from patent US20250163052A1, “cGAS INHIBITORS AND USES THEREOF” (Cornell University, priority 2022, published 2025).

Data set [1] has as its system IFNB. The data set can be described thus: THP1-Dual cells transfected with DNA, Ifnb expression (Quantiluc). It is filed as cell-based. Particulars: Homo sapiens; for inhibition at 10 µM: THP-1, 10 μM; for inhibition at 30 µM: THP-1, 30 μM. The protocol: (§1) Evaluation of active cGAS inhibitors in THP1 cells (Table 3). Cellular activity of all compounds (in Table 3) was determined using THP1-Dual™ cells as described (Lama et. al., 2019). THP1-Dual™ cells (Invivogen) (50000 cells in 100 μl media) were seeded into each well of a 96-well plate and treated with compounds at various dilution for 4 hours. Subsequently, cells were transfected with DNA (2 ug/ml) and lipofectamine and incubate the cells were incubated overnight. Ifnb expression was measured in cell supernatant using Quantiluc, nfkb expression was determined using Quantiblue, and cell viability using Promega® CellTiter-Glo®.

Data set [2] has as its system THP1 cells. Nature of the data set: THP1-Dual cells, cell viability (CellTiter-Glo). It is filed as cell-based. The protocol:
as §1

In data set [3] the target is h-cGAS (Homo sapiens, UniProt Q8N884). The data set can be described thus: Cell-free human cGAS enzyme inhibition assay (ATP depletion, Kinase-Glo Max). Particulars: 3 h; for inhibition at 1 µM: read-out: h-cGAS, conc. 1 μM; for inhibition at 10 µM: read-out: h-cGAS, conc. 10 μM. It is filed as biochemical. The protocol:
Cell-free mouse and human cGAS enzyme inhibition assay (Table 2). Activity of all compounds (in Table 1) against m-cGAS (30 nM) and or h-cGAS, (100 nM) was determined by measuring the conversion of ATP and GTP (100 μM each) to cGAMP in the presence of dsDNA (5 ug/mL) in a reaction buffer composed of Tris-HCl (20 mM, pH7.4), NaCl (150 mM), MnCl2 (0.2 mM, h-cGAS) or MgCl2 (5 mM, m-cGAS) and Tween-20 (0.01%), and the remaining ATP concentration using Kinase-Glo®Max Luminescent Kinase Assay (Promega, Madison, WI), as described (Lama, et. al., 2019). Briefly, 10 μl of a master mix of 0.4 mM ATP, 0.4 mM GTP, 0.02 mg/mL dsDNA in the reaction buffer supplemented with 2 mM DTT was added to reaction wells containing TDI-6570 or TDI-8246 (2× of the desired concentration) in the same buffer ([…]) using a Thermo 8-channel Multidrop Combi dispenser. Next, 10 μl of a 4×m-cGAS (0.120 μM) or h-cGAS (0.4 μM) solution in the reaction buffer supplemented with 2 mM DTT was added to appropriate wells. Similar sets of reactions without cGAS or the inhibitor was set by adding the buffer alone. The reactions with the plates sealed were incubated at 37° C. (1 hour for m-cGAS and 3 hours for h-cGAS) and stopped by addition of 40 μl of the Kinase-Glo®Max. The luminescence was recorded in relative light units (RLUs) using a Biotek Synergy H1 Hybrid plate reader (BioTek, Winooski, VT). […] All reactions were run in triplicates and calculated using GraphPad Prism 9. The values represent mean IC50±S.D.
(Kinase-Glo reads ATP consumption through a luciferase reaction.)

Each structure is given as a SMILES string. Where only a bound is given, the exact number is not on record here.

Chain of h-cGAS (Q8N884 whole entry): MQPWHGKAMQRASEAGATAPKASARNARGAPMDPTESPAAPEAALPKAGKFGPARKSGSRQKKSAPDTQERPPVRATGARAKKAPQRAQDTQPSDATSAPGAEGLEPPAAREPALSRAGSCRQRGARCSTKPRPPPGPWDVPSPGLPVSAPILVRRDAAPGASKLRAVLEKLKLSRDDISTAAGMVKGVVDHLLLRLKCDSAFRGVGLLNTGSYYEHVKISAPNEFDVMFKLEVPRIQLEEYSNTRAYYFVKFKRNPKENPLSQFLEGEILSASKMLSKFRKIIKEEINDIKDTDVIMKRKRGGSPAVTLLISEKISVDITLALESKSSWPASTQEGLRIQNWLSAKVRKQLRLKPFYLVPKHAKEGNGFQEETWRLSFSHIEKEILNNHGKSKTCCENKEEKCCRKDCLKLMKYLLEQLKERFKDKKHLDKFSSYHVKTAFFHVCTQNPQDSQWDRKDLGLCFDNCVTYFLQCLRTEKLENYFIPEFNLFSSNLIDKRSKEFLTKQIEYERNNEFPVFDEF

In the case of `O=C(CO)N1CCc2oc3c(Cl)c(Cl)cc(-c4cc[nH]n4)c3c2C1` [Compound 28], in data set [1], the inhibition at 10 µM lay within 50 to 74% and the inhibition at 30 µM is 50 to 74%. Besides, in data set [2], the “Cell viability 10 μM” value was “+++ (+, ++, and +++ mean the compound respectively shows 25-49%; 50-74%; or 75-100% viability to cells)”; the “Cell viability 30 μM” value is “+++ (+, ++, and +++ mean the compound respectively shows 25-49%; 50-74%; or 75-100% viability to cells)”. In addition, in data set [3], the inhibition at 1 µM was in the range of 25 to 49% and the inhibition at 10 µM lay within 50 to 74%.
Regarding `O=C(CO)N1CCc2oc3c(Cl)c(Cl)cc(-c4cn[nH]c4)c3c2C1` [Compound 29], in data set [1], the inhibition at 10 µM is 50 to 74% and the inhibition at 30 µM was in the range of 75 to 100%. Besides, in data set [2], the “Cell viability 10 μM” value was “+++ (+, ++, and +++ mean the compound respectively shows 25-49%; 50-74%; or 75-100% viability to cells)”; the “Cell viability 30 μM” value is “+++ (+, ++, and +++ mean the compound respectively shows 25-49%; 50-74%; or 75-100% viability to cells)”. Moreover, in data set [3], the inhibition at 1 µM fell in the range of 25 to 49% and the inhibition at 10 µM is 75 to 100%.
In data set [1], `O=C(CO)N1CCc2oc3c(Cl)c(Cl)cc(-c4ccco4)c3c2C1` [Compound 30] came in with an inhibition at 10 µM of less than 24% and an inhibition at 30 µM of 25 to 49%. Moreover, in data set [2], the “Cell viability 10 μM” value is “+++ (+, ++, and +++ mean the compound respectively shows 25-49%; 50-74%; or 75-100% viability to cells)”; the “Cell viability 30 μM” value is “+++ (+, ++, and +++ mean the compound respectively shows 25-49%; 50-74%; or 75-100% viability to cells)”. Also, in data set [3], the inhibition at 1 µM was 0 to 24% and the inhibition at 10 µM was 50 to 74%.
Take `O=C(CO)N1CCc2oc3c(Cl)c(Cl)cc(-c4nccs4)c3c2C1` [Compound 31]: in data set [1], the inhibition at 10 µM lay within 50 to 74% and the inhibition at 30 µM was in the range of 50 to 74%. Further, in data set [2], the “Cell viability 10 μM” value is “+++ (+, ++, and +++ mean the compound respectively shows 25-49%; 50-74%; or 75-100% viability to cells)”; the “Cell viability 30 μM” value is “+++ (+, ++, and +++ mean the compound respectively shows 25-49%; 50-74%; or 75-100% viability to cells)”. In data set [3], the inhibition at 1 µM fell in the range of 50 to 74% and the inhibition at 10 µM was in the range of 75 to 100%.
In data set [1], `CC(C)(N)C(=O)N1CCc2oc3c(Cl)c(Cl)cc(-c4cc[nH]n4)c3c2C1` [Compound 34] showed an inhibition at 10 µM of 75 to 100% and an inhibition at 30 µM of 75 to 100%. Further, in data set [2], the “Cell viability 10 μM” value was “+++ (+, ++, and +++ mean the compound respectively shows 25-49%; 50-74%; or 75-100% viability to cells)”; the “Cell viability 30 μM” value is listed as “− (Cell viability <24%, in THP1 cells is expressed as “−”)”. Besides, in data set [3], the inhibition at 1 µM lay in the range of 25 to 49% and the inhibition at 10 µM lay in the range of 50 to 74%.
Consider `NCC(=O)N1CCc2c(oc3c(Cl)c(Cl)cc(-c4cncnc4)c23)C1` [Compound 39], for which, in data set [1], the inhibition at 10 µM lay within 25 to 49% and the inhibition at 30 µM fell in the range of 75 to 100%. Also, in data set [2], the “Cell viability 10 μM” value is “+++ (+, ++, and +++ mean the compound respectively shows 25-49%; 50-74%; or 75-100% viability to cells)”; the “Cell viability 30 μM” value was “+++ (+, ++, and +++ mean the compound respectively shows 25-49%; 50-74%; or 75-100% viability to cells)”. In data set [3], the inhibition at 1 µM lay in the range of 0 to 24% and the inhibition at 10 µM lay in the range of 75 to 100%.
Consider `O=C(CO)N1CCc2c(sc3c(Cl)c(Cl)cc(-c4cc[nH]n4)c23)C1` [Compound 61], for which the inhibition at 10 µM in data set [3] lay in the range of 25 to 49%.
On to `O=C(CO)N1CCc2c(sc3c(Cl)c(Cl)cc(-c4ccco4)c23)C1` [Compound 64], for which, in data set [3], the inhibition at 1 µM fell in the range of 0 to 24% and the inhibition at 10 µM fell in the range of 25 to 49%.
On to `CNc1ccc(-c2cc(Cl)c(Cl)c3sc4c(c23)CCN(C(=O)CO)C4)cn1` [Compound 66], for which the inhibition at 10 µM in data set [3] was in the range of 0 to 24%.
For `O=C(CO)N1CCc2c(sc3c(Cl)c(Cl)cc(-c4nccs4)c23)C1` [Compound 67], in data set [3], the inhibition at 10 µM lay in the range of 25 to 49%.
As for `O=C(CO)N1CCc2c(sc3c(Cl)c(Cl)cc(-c4cccnc4)c23)C1` [Compound 68], the inhibition at 10 µM in data set [3] fell in the range of 0 to 24%.
Still for that read-out and setting: for `O=C(CO)N1CCc2c(sc3c(Cl)c(Cl)cc(-c4ccncc4)c23)C1` [Compound 69] the value was 0 to 24%; for `O=C(CO)N1CCc2c(sc3c(Cl)c(Cl)cc(-c4cncs4)c23)C1` [Compound 70], 0 to 24%.
